Assay results as given in US20230391739A1, “ARYL DERIVATIVES FOR TREATING TRPM3 MEDIATED DISORDERS” (Katholieke Universiteit Leuven, priority 2020, published 2023).
pIC50: −log10 of the molar value.

Target: T1, mouse TRPM3α2 (mTRPM3) ion channel (Mus musculus, UniProt J9SQF3)
T1 construct: expressed in transfected cells; host or cells: flip-in HEK293
Test: TRPM3 ion channel driven Ca2+ uptake, Fluo-4 AM assay, PS-stimulated (mTRPM3)
Type: cell-based
Details: TRPM3 overexpressing flip-in HEK293 cells stimulated with Pregnenolone sulfate (PS) 50 μM, activity ranges A, B, C
Summary of the method: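 Ca²⁺ influx through mouse TRPM3α2, opened by 50 μM pregnenolone sulfate, was tracked with Fluo-4 AM in stably transfected HEK293 cells read directly after seeding onto pre-dispensed compound.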

T1 sequence (J9SQF3 1-1709 isoform J9SQF3-12): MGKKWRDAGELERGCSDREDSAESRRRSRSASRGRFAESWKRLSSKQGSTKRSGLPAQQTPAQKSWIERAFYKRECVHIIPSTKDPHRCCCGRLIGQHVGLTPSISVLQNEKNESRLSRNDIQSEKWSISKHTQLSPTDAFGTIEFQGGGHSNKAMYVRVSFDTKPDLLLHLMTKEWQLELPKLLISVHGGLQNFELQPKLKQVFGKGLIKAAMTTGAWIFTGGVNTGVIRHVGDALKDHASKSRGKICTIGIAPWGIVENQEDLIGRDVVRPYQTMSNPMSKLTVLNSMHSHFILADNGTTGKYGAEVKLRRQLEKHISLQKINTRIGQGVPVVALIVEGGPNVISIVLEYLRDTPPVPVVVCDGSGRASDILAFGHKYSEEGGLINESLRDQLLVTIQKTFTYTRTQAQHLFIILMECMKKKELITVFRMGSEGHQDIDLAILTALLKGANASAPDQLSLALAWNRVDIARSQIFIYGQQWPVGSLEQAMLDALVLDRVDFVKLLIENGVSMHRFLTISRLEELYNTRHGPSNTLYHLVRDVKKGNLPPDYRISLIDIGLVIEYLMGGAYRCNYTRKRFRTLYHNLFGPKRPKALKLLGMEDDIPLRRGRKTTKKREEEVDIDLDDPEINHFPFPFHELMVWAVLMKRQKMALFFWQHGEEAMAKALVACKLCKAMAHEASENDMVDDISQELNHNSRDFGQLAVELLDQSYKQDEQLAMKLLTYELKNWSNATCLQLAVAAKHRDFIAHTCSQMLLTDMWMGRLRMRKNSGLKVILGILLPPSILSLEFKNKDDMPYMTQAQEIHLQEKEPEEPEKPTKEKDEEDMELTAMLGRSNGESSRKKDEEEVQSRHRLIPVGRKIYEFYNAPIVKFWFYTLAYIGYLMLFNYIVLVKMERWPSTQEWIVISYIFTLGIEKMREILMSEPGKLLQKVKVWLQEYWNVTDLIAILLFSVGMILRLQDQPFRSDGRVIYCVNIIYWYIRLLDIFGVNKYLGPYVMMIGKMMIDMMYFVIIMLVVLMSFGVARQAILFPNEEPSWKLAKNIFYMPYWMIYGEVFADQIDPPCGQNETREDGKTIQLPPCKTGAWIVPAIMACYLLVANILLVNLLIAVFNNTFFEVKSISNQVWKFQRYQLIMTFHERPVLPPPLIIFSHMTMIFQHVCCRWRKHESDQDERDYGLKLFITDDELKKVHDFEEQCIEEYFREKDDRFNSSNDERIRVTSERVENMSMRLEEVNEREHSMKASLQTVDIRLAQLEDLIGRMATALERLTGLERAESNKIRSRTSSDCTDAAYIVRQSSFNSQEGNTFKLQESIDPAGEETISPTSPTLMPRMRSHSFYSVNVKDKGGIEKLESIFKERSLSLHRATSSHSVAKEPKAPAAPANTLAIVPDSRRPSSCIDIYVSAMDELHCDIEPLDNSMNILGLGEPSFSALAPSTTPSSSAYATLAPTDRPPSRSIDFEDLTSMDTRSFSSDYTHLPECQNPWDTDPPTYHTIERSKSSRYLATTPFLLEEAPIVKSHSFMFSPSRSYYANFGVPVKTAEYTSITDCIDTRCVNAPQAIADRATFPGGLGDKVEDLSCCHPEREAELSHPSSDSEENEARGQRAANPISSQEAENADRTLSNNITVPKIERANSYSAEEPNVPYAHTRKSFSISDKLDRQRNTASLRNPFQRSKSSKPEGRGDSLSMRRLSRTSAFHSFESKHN

| pIC50 | Structure (SMILES) |
| --- | --- |
| 4.70 to 6.00 | Cc1oc2ccc(OCc3ccccc3)cc2c1C(=O)N[C@H]1CCN(C(=O)OC(C)(C)C)C1 [Cpd 239, tert-butyl (S)-3-(5-(benzyloxy)-2-methylbenzofuran-3-carboxamido)pyrrolidine-1-carboxylate] |
| > 6.00 | Cc1oc2ccc(OCc3ccccc3)cc2c1C(=O)NC1CCNCC1 [Cpd 074, 5-(benzyloxy)-2-methyl-N-(piperidin-4-yl)benzofuran-3-carboxamide] |
| > 6.00 | Cc1oc2ccc(OCc3ccccc3)cc2c1C(=O)N[C@@H](CO)C(N)=O [Cpd 337, (S)—N-(1-amino-3-hydroxy-1-oxopropan-2-yl)-5-(benzyloxy)-2-methylbenzofuran-3-carboxamide] |
| > 6.00 | Cc1oc2ccc(OCc3ccccc3)cc2c1C(=O)N[C@H]1C[C@@H](O)C1 [Cpd 054, 5-(benzyloxy)-N-(cis-3-hydroxycyclobutyl)-2-methylbenzofuran-3-carboxamide] |
| > 6.00 | Cc1oc2ccc(OC(C)c3ccccc3)cc2c1C(=O)NC1(C(N)=O)CCC1 (single isomer, unassigned) [Cpd 343-En 1, N-(1-carbamoylcyclobutyl)-2-methyl-5-(1-phenylethoxy)benzofuran-3-carboxamide] |
| > 6.00 | Cc1oc2ccc(OCc3ccccc3)cc2c1C(=O)NC1CCNC(C)C1 (racemic) [Cpd 115, rac-5-(benzyloxy)-2-methyl-N-(cis-2-methylpiperidin-4-yl)benzofuran-3-carboxamide] |
| > 6.00 | Cc1oc2ccc(OCc3ccccc3)cc2c1C(=O)N[C@@H]1CCCNC1=O [Cpd 107, (R)-5-(benzyloxy)-2-methyl-N-(2-oxopiperidin-3-yl)benzofuran-3-carboxamide] |
| > 6.00 | Cc1oc2ccc(OC(C)c3ccccc3)cc2c1C(=O)N[C@@H](CO)C(N)=O (single isomer, unassigned) [Cpd 336-Dia 2] |
| > 6.00 | Cc1oc2ccc(OCc3ccccc3)cc2c1C(=O)N[C@H]1CC[C@@H](O)CC1 [Cpd 125, 5-(benzyloxy)-N-(cis-4-hydroxycyclohexyl)-2-methylbenzofuran-3-carboxamide] |
| < 4.70 | Cc1oc2ccc(OCc3ccccc3)cc2c1C(=O)NCc1ccccc1 [Cpd 098, N-benzyl-5-(benzyloxy)-2-methylbenzofuran-3-carboxamide] |
| > 6.00 | COCC(Oc1ccc2oc(C)c(C(=O)N[C@@H](CO)C(N)=O)c2c1)c1ccccc1 (single isomer, unassigned) [Cpd 346-En 1] |
| 4.70 to 6.00 | Cc1oc2ccc(OCc3ccccc3)cc2c1C(=O)NCC1CCNC1 (centres unmarked) [Cpd 077, 5-(benzyloxy)-2-methyl-N-(pyrrolidin-3-ylmethyl)benzofuran-3-carboxamide] |
| < 4.70 | Cc1oc2ccc(OCc3ccccc3)cc2c1C(=O)NC1CCC(C)CC1 (centres unmarked) [Cpd 106, 5-(benzyloxy)-2-methyl-N-(4-methylcyclohexyl)benzofuran-3-carboxamide] |

Continued, compound first:

| Structure (SMILES) | pIC50 |
| --- | --- |
| Cc1oc2ccc(OCc3ccccc3OCCN(C)C)cc2c1C(=O)NC1CCN(C)CC1 [Cpd 250, 5-((2-(2-(dimethylamino)ethoxy)benzyl)oxy)-2-methyl-N-(1-methylpiperidin-4-yl)benzofuran-3-carboxamide] | < 4.70 |
| Cc1oc2cc(F)c(OCc3ccccc3)cc2c1C(=O)NC1CNCC1(F)F (single isomer, unassigned) [Cpd 302-En 1, 5-(benzyloxy)-N-(4,4-difluoropyrrolidin-3-yl)-6-fluoro-2-methylbenzofuran-3-carboxamide] | > 6.00 |
| CCc1oc2ccc(OCc3cccc(F)c3)cc2c1C(=O)NC1CCN(C)CC1 [Cpd 194, 2-ethyl-5-((3-fluorobenzyl)oxy)-N-(1-methylpiperidin-4-yl)benzofuran-3-carboxamide] | 4.70 to 6.00 |
| Cc1oc2ccc(OCc3ccc(F)cc3)cc2c1C(=O)NS(=O)(=O)C1CC1 [Cpd 177, N-(cyclopropylsulfonyl)-5-((4-fluorobenzyl)oxy)-2-methylbenzofuran-3-carboxamide] | 4.70 to 6.00 |
| Cc1oc2ccc(OCc3ccccc3)cc2c1C(=O)N(C)C1CCN(C)CC1 [Cpd 156, 5-(benzyloxy)-N,2-dimethyl-N-(1-methylpiperidin-4-yl)benzofuran-3-carboxamide] | 4.70 to 6.00 |
| Cc1cccc(COc2ccc3oc(C)c(C(=O)NS(=O)(=O)C4CC4)c3c2)c1 [Cpd 170, N-(cyclopropylsulfonyl)-2-methyl-5-((3-methylbenzyl)oxy)benzofuran-3-carboxamide] | 4.70 to 6.00 |
| Cc1oc2ccc(OCc3ccccc3)cc2c1C(=O)N[C@H]1C[C@H]2C(=O)NCC(=O)N2C1 [Cpd 222, 5-(benzyloxy)-N-((7S,8aS)-1,4-dioxooctahydropyrrolo[1,2-a]pyrazin-7-yl)-2-methylbenzofuran-3-carboxamide] | 4.70 to 6.00 |
| Cc1oc2ccc(OCc3ccccc3)cc2c1C(=O)NC1CCN2CCCC12 (single isomer, unassigned) [Cpd 144-Dia 2, 5-(benzyloxy)-N-(hexahydro-1H-pyrrolizin-1-yl)-2-methylbenzofuran-3-carboxamide] | > 6.00 |
| COc1cccc(COc2ccc3oc(C)c(C(=O)N[C@H]4CCNC4)c3c2)c1 [Cpd 127, (S)-5-((3-methoxybenzyl)oxy)-2-methyl-N-(pyrrolidin-3-yl)benzofuran-3-carboxamide] | > 6.00 |
| Cc1ccccc1COc1ccc2oc(C)c(C(=O)N[C@H]3CCNC3)c2c1 [Cpd 083, (S)-2-methyl-5-((2-methylbenzyl)oxy)-N-(pyrrolidin-3-yl)benzofuran-3-carboxamide] | > 6.00 |
| Cc1ccc(COc2ccc3oc(C)c(C(=O)NC4CCN(C)CC4)c3c2)cc1 [Cpd 154, 2-methyl-5-((4-methylbenzyl)oxy)-N-(1-methylpiperidin-4-yl)benzofuran-3-carboxamide] | 4.70 to 6.00 |
| Cc1oc2ccc(OC3CCc4ccccc43)cc2c1C(=O)O (centres unmarked) [Cpd 011, 5-((2,3-dihydro-1H-inden-1-yl)oxy)-2-methylbenzofuran-3-carboxylic acid] | 4.70 to 6.00 |
| CN1CCC(NC(=O)c2coc3ccc(OCc4ccccc4)cc23)CC1 [Cpd 081, 5-(benzyloxy)-N-(1-methylpiperidin-4-yl)benzofuran-3-carboxamide] | 4.70 to 6.00 |
| Cc1oc2ccc(OCc3ccccc3)cc2c1C(=O)N[C@@H]1C[C@H]2CC[C@@H](C1)N2C [Cpd 182, 5-(benzyloxy)-2-methyl-N-((1R,3s,5S)-8-methyl-8-azabicyclo[3.2.1]octan-3-yl)benzofuran-3-carboxamide] | > 6.00 |
| Cc1oc2ccc(OCc3ccccc3)cc2c1C(=O)N1CCN(C)CC1 [Cpd 072, (5-(benzyloxy)-2-methylbenzofuran-3-yl)(4-methylpiperazin-1-yl)methanone] | < 4.70 |
| Cc1oc2ccc(OCc3ccccc3)cc2c1C(=O)NC1CCC(N(C)C)CC1 (centres unmarked) [Cpd 186, 5-(benzyloxy)-N-(4-(dimethylamino)cyclohexyl)-2-methylbenzofuran-3-carboxamide] | > 6.00 |
| Cc1oc2ccc(OCc3ccccc3)cc2c1C(=O)NCCc1ccccc1 [Cpd 134, 5-(benzyloxy)-2-methyl-N-phenethylbenzofuran-3-carboxamide] | < 4.70 |
| Cc1oc2ccc(OCc3ccccc3)cc2c1C(=O)NCCc1ccccn1 [Cpd 138, 5-(benzyloxy)-2-methyl-N-(2-(pyridin-2-yl)ethyl)benzofuran-3-carboxamide] | 4.70 to 6.00 |
| O=C(O)c1c(C2CCCC2)oc2ccc(OCc3ccccc3)cc12 [Cpd 023, 5-(benzyloxy)-2-cyclopentylbenzofuran-3-carboxylic acid] | < 4.70 |
